Key:
[1] = tested on: Tyrosine-protein kinase ABL1 (Homo sapiens), P00519 [T315I]; conditions: Compound concentration 1000.0 nM
[2] = tested on: ALK tyrosine kinase receptor (Homo sapiens), Q9UM73 [L1196M]; conditions: Compound concentration 1000.0 nM
[3] = target: 5'-AMP-activated protein kinase catalytic subunit alpha-2 (Homo sapiens) (UniProt P54646); conditions: Compound concentration 1000.0 nM
[4] = target: Ankyrin repeat and protein kinase domain-containing protein 1 (Homo sapiens) (UniProt Q8NFD2); conditions: Compound concentration 1000.0 nM
Sequence of Ankyrin repeat and protein kinase domain-containing protein 1 (Homo sapiens) (Q8NFD2 whole entry, the tested form may be a part): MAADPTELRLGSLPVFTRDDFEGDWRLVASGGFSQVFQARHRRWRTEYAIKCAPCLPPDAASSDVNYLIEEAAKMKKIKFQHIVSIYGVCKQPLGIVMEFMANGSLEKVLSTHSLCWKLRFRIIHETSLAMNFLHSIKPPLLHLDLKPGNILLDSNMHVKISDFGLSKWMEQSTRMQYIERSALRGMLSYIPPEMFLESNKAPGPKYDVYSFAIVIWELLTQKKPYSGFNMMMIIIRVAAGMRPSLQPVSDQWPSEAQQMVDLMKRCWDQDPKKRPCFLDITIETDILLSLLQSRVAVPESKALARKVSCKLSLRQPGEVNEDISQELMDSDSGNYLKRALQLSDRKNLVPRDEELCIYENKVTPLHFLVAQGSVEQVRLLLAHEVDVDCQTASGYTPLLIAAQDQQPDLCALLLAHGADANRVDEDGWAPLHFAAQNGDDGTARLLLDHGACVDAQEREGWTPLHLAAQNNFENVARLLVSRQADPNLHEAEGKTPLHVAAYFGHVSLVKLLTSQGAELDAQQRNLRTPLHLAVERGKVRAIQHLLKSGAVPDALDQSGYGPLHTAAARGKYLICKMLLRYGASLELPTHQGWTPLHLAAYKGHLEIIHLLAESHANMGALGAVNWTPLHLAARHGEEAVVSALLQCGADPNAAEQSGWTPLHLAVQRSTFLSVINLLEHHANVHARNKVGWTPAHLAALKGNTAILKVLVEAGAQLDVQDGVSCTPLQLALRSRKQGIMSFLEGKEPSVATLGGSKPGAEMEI

[5] = target: Mitotic checkpoint serine/threonine-protein kinase BUB1 (Homo sapiens) (UniProt O43683); conditions: Compound concentration 1000.0 nM
[6] = target: Calcium/calmodulin-dependent protein kinase type 1 (Homo sapiens) (UniProt Q14012); conditions: Compound concentration 1000.0 nM
[7] = target: Calcium/calmodulin-dependent protein kinase type II subunit beta (Homo sapiens) (UniProt Q13554); conditions: Compound concentration 1000.0 nM
[8] = target: Cyclin-dependent kinase 3 (Homo sapiens) (UniProt Q00526); conditions: Compound concentration 1000.0 nM
[9] = target: Cyclin-dependent kinase-like 2 (Homo sapiens) (UniProt Q92772); conditions: Compound concentration 1000.0 nM
[10] = target: Serine/threonine-protein kinase Chk2 (Homo sapiens) (UniProt O96017); conditions: Compound concentration 1000.0 nM
[11] = target: Tyrosine-protein kinase CSK (Homo sapiens) (UniProt P41240); conditions: Compound concentration 1000.0 nM
[12] = target: Megakaryocyte-associated tyrosine-protein kinase (Homo sapiens) (UniProt P42679); conditions: Compound concentration 1000.0 nM
Sequence of Megakaryocyte-associated tyrosine-protein kinase (Homo sapiens) (P42679 whole entry): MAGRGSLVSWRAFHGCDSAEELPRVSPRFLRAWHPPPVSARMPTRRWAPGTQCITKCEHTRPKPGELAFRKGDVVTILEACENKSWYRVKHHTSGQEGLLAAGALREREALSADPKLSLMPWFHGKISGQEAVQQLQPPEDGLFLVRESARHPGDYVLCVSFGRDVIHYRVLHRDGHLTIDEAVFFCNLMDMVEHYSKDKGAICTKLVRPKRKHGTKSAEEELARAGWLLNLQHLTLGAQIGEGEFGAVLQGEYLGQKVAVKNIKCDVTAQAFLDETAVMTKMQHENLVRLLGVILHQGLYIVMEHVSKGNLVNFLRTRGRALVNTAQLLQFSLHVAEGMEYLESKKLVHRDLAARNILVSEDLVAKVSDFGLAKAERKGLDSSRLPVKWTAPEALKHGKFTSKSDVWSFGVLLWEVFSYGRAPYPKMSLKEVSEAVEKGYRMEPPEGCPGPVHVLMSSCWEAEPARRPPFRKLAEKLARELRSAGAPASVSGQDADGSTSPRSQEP

[13] = target: Epidermal growth factor receptor (Homo sapiens) (UniProt P00533); conditions: Compound concentration 1000.0 nM
[14] = tested on: Epidermal growth factor receptor (Homo sapiens), P00533 [UNDEFINED MUTATION]; conditions: Compound concentration 1000.0 nM
[15] = tested on: Epidermal growth factor receptor (Homo sapiens), P00533 [UNDEFINED MUTATION]; conditions: Compound concentration 1000.0 nM; remark: listed apart in the source
[16] = tested on: Epidermal growth factor receptor (Homo sapiens), P00533 [L858R,T790M]; conditions: Compound concentration 1000.0 nM
[17] = target: Ephrin type-A receptor 1 (Homo sapiens) (UniProt P21709); conditions: Compound concentration 1000.0 nM
[18] = target: Ephrin type-B receptor 3 (Homo sapiens) (UniProt P54753); conditions: Compound concentration 1000.0 nM
Sequence of Ephrin type-B receptor 3 (Homo sapiens) (P54753 whole entry): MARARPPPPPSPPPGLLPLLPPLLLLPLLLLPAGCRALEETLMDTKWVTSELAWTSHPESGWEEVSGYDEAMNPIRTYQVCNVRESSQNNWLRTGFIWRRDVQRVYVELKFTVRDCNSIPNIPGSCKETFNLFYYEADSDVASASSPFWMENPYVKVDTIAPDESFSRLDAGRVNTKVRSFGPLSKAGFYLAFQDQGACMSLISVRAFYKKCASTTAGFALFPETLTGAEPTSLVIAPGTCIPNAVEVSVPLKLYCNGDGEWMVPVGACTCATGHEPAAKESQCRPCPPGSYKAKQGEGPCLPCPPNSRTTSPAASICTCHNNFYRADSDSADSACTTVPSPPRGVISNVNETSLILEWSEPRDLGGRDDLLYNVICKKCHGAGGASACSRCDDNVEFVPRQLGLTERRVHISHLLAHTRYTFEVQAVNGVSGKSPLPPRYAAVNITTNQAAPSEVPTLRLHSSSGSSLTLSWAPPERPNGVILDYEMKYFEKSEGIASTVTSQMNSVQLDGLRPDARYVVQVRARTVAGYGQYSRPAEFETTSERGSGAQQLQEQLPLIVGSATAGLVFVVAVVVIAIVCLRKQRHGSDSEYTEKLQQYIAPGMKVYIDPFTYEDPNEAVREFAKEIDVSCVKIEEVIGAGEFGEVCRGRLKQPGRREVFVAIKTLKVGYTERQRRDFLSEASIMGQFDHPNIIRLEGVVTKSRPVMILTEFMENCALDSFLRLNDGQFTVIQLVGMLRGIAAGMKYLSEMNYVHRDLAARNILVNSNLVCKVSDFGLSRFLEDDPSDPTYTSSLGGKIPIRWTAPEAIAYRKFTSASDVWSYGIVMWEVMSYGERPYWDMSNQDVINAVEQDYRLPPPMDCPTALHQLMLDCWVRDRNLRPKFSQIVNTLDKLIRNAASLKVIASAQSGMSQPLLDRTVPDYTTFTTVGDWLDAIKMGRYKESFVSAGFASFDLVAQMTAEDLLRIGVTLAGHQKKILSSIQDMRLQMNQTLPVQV

[19] = target: Mitogen-activated protein kinase 3 (Homo sapiens) (UniProt P27361); conditions: Compound concentration 1000.0 nM
Sequence of Mitogen-activated protein kinase 3 (Homo sapiens) (P27361 whole entry): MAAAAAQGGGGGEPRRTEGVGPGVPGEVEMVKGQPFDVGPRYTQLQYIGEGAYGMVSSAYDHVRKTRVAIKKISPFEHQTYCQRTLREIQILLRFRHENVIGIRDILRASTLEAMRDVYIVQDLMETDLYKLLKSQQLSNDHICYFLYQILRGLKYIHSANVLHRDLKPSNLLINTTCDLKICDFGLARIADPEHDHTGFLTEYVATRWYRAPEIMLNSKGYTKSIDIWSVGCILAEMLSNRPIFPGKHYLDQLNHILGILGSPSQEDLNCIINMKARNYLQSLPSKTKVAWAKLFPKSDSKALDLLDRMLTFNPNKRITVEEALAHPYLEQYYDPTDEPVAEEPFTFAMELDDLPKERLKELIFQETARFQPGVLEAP

[20] = target: Tyrosine-protein kinase Fes/Fps (Homo sapiens) (UniProt P07332); conditions: Compound concentration 1000.0 nM
[21] = tested on: Receptor-type tyrosine-protein kinase FLT3 (Homo sapiens), P36888 [D835H]; conditions: Compound concentration 1000.0 nM
[22] = tested on: Receptor-type tyrosine-protein kinase FLT3 (Homo sapiens), P36888 [UNDEFINED MUTATION]; conditions: Compound concentration 1000.0 nM
[23] = target: Mitogen-activated protein kinase kinase kinase kinase 1 (Homo sapiens) (UniProt Q92918); conditions: Compound concentration 1000.0 nM
[24] = target: Interleukin-1 receptor-associated kinase 3 (Homo sapiens) (UniProt Q9Y616); conditions: Compound concentration 1000.0 nM
[25] = target: Mitogen-activated protein kinase 9 (Homo sapiens) (UniProt P45984); conditions: Compound concentration 1000.0 nM
[26] = target: Mitogen-activated protein kinase kinase kinase 10 (Homo sapiens) (UniProt Q02779); conditions: Compound concentration 1000.0 nM
[27] = target: Serine/threonine-protein kinase 24 (Homo sapiens) (UniProt Q9Y6E0); conditions: Compound concentration 1000.0 nM
[28] = target: Serine/threonine-protein kinase 26 (Homo sapiens) (UniProt Q9P289); conditions: Compound concentration 1000.0 nM
Sequence of Serine/threonine-protein kinase 26 (Homo sapiens) (Q9P289 2-416 limits assumed): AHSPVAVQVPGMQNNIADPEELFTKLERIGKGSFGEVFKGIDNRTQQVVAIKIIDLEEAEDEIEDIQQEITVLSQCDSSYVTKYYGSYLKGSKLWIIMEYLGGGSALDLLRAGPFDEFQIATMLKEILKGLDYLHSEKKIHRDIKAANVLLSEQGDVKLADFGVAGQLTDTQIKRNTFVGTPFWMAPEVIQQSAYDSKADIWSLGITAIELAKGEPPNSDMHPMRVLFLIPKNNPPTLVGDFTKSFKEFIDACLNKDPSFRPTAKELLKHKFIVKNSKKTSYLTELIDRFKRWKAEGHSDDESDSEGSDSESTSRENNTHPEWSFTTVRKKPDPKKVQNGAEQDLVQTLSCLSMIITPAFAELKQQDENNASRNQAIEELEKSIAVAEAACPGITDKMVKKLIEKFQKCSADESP

[29] = target: Myosin-IIIb (Homo sapiens) (UniProt Q8WXR4); conditions: Compound concentration 1000.0 nM
[30] = target: Mitogen-activated protein kinase 13 (Homo sapiens) (UniProt O15264); conditions: Compound concentration 1000.0 nM
[31] = target: Phosphatidylinositol 4-phosphate 3-kinase C2 domain-containing subunit beta (Homo sapiens) (UniProt O00750); conditions: Compound concentration 1000.0 nM
Sequence of Phosphatidylinositol 4-phosphate 3-kinase C2 domain-containing subunit beta (Homo sapiens) (O00750 whole entry, the tested form may be a part, canonical isoform): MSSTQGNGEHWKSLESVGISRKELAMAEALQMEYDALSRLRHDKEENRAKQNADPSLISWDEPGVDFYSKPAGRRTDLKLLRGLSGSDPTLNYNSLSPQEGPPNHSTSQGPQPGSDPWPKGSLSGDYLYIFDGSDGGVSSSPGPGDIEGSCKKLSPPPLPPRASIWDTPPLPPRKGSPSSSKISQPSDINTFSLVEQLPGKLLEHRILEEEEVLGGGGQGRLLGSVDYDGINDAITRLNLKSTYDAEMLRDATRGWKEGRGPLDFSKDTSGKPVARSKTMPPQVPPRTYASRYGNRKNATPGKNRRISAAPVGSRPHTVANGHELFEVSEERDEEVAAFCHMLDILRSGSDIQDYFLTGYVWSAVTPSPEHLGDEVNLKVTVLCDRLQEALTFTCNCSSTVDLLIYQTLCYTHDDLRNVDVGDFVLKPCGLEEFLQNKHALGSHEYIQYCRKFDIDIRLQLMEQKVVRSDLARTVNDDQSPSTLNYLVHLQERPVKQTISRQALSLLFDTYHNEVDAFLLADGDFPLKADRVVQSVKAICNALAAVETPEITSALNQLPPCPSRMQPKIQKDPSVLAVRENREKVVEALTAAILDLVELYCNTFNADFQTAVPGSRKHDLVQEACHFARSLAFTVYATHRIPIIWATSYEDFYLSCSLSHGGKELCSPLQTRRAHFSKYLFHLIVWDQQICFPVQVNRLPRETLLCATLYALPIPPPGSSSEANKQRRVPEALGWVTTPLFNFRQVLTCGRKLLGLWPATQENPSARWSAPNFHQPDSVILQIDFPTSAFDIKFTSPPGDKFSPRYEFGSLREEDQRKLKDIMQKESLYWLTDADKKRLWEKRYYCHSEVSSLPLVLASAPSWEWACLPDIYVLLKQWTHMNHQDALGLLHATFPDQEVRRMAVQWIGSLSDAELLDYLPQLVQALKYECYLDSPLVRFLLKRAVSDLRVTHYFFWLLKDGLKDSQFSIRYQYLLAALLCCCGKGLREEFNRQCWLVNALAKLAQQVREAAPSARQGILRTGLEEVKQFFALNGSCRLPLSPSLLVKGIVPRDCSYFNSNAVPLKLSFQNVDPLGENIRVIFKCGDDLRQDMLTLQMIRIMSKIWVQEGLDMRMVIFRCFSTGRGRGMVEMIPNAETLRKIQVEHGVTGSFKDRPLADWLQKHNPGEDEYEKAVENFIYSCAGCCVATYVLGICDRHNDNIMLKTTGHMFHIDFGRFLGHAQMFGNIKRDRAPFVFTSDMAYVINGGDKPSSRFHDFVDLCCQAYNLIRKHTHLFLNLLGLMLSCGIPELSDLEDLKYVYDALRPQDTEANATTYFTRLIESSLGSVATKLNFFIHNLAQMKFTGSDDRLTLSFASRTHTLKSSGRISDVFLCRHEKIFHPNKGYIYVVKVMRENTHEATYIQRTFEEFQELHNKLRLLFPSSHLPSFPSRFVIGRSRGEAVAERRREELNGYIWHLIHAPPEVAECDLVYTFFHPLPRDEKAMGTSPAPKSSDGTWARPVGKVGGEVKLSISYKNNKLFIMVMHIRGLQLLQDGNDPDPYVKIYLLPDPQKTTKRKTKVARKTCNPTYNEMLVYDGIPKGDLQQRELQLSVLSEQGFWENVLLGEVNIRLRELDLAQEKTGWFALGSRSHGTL

[32] = target: Phosphatidylinositol 4,5-bisphosphate 3-kinase catalytic subunit alpha isoform (Homo sapiens) (UniProt P42336); conditions: Compound concentration 1000.0 nM
[33] = target: Phosphatidylinositol 4-phosphate 5-kinase type-1 gamma (Homo sapiens) (UniProt O60331); conditions: Compound concentration 1000.0 nM
[34] = target: Protein-tyrosine kinase 2-beta (Homo sapiens) (UniProt Q14289); conditions: Compound concentration 1000.0 nM
[35] = target: RAF proto-oncogene serine/threonine-protein kinase (Homo sapiens) (UniProt P04049); conditions: Compound concentration 1000.0 nM
[36] = tested on: Proto-oncogene tyrosine-protein kinase receptor Ret (Homo sapiens), P07949 [V804L]; conditions: Compound concentration 1000.0 nM
[37] = target: Serine/threonine-protein kinase Sgk2 (Homo sapiens) (UniProt Q9HBY8); conditions: Compound concentration 1000.0 nM
[38] = target: SRSF protein kinase 2 (Homo sapiens) (UniProt P78362); conditions: Compound concentration 1000.0 nM
[39] = target: Serine/threonine-protein kinase 16 (Homo sapiens) (UniProt O75716); conditions: Compound concentration 1000.0 nM
[40] = target: Vascular endothelial growth factor receptor 2 (Homo sapiens) (UniProt P35968); conditions: Compound concentration 1000.0 nM
[41] = target: Tyrosine-protein kinase Yes (Homo sapiens) (UniProt P07947); conditions: Compound concentration 1000.0 nM
[42] = target: 5-hydroxytryptamine receptor 1A (Homo sapiens) (UniProt P08908); conditions: Compound concentration 10.0 uM
[43] = target: 5-hydroxytryptamine receptor 1E (Homo sapiens) (UniProt P28566); conditions: Compound concentration 10.0 uM
Histamine H2 receptor = Histamine H2 receptor (Homo sapiens, UniProt P25021); conditions: Compound concentration 10.0 uM
Sequence of Histamine H2 receptor (P25021 whole entry): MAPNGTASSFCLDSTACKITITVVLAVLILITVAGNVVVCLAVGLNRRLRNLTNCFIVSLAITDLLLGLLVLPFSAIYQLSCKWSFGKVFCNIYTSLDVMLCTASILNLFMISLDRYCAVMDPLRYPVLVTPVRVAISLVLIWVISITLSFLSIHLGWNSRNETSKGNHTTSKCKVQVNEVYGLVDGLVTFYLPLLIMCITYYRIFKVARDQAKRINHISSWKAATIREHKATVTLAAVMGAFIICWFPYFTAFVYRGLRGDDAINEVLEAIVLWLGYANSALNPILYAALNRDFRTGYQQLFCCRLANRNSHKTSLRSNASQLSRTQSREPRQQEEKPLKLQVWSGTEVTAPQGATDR

## Cc1c(NC(=O)c2cc(C(N)=O)nc3cc(F)ccc23)c(C(F)(F)F)nn1Cc1ccc(C(C)(C)C)cc1 [BAY-588]
[1]
  residual activity: 85%
[2]
  residual activity: 83%
[3]
  residual activity: 100%
[4]
  residual activity: 100%
[5]
  residual activity: 100%
[6]
  residual activity: 82%
[7]
  residual activity: 98%
[8]
  residual activity: 100%
[9]
  residual activity: 100%
[10]
  residual activity: 99%
[11]
  residual activity: 94%
[12]
  residual activity: 66%
[13]
  residual activity: 100%
[14]
  residual activity: 100%
[15]
  residual activity: 77%
[16]
  residual activity: 100%
[17]
  residual activity: 96%
[18]
  residual activity: 100%
[19]
  residual activity: 100%
[20]
  residual activity: 100%
[21]
  residual activity: 79%
[22]
  residual activity: 100%
[23]
  residual activity: 100%
[24]
  residual activity: 100%
[25]
  residual activity: 100%
[26]
  residual activity: 78%
[27]
  residual activity: 100%
[28]
  residual activity: 100%
[29]
  residual activity: 100%
[30]
  residual activity: 49%
[31]
  residual activity: 86%
[32]
  residual activity: 100%
[33]
  residual activity: 78%
[34]
  residual activity: 92%
[35]
  residual activity: 88%
[36]
  residual activity: 83%
[37]
  residual activity: 100%
[38]
  residual activity: 97%
[39]
  residual activity: 83%
[40]
  residual activity: 100%
[41]
  residual activity: 100%
[42]
  inhibition: 18.6%
[43]
  inhibition: 7.98%
Histamine H2 receptor
  inhibition: 32.4%

## Cc1c(NC(=O)c2cc(C(N)=O)nc3cc(F)ccc23)c(C(F)(F)F)nn1Cc1ccc(C#N)cc1 [BAY-876]
[1]
  residual activity: 92%
[2]
  residual activity: 83%
[3]
  residual activity: 100%
[4]
  residual activity: 80%
[5]
  residual activity: 88%
[6]
  residual activity: 100%
[7]
  residual activity: 90%
[8]
  residual activity: 95%
[9]
  residual activity: 92%
[10]
  residual activity: 73%
[11]
  residual activity: 100%
[12]
  residual activity: 66%
[13]
  residual activity: 100%
[14]
  residual activity: 91%
[15]
  residual activity: 83%
[16]
  residual activity: 93%
[17]
  residual activity: 74%
[18]
  residual activity: 96%
[19]
  residual activity: 85%
[20]
  residual activity: 83%
[21]
  residual activity: 100%
[22]
  residual activity: 68%
[23]
  residual activity: 100%
[24]
  residual activity: 94%
[25]
  residual activity: 77%
[26]
  residual activity: 92%
[27]
  residual activity: 78%
[28]
  residual activity: 95%
[29]
  residual activity: 100%
[30]
  residual activity: 70%
[31]
  residual activity: 81%
[32]
  residual activity: 100%
[33]
  residual activity: 94%
[34]
  residual activity: 95%
[35]
  residual activity: 86%
[36]
  residual activity: 100%
[37]
  residual activity: 80%
[38]
  residual activity: 100%
[39]
  residual activity: 100%
[40]
  residual activity: 80%
[41]
  residual activity: 66%
[42]
  inhibition: -3.47%
[43]
  inhibition: 4%
Histamine H2 receptor
  inhibition: 30.4%
